From patent publication US10471119B2, “Composition for preventing, ameliorating, or treating neurological disease containing osmotin peptide as active ingredient” (INDUSTRY-ACADEMIC COOPERATION FOUNDATION GYEONGSANG …, priority 2015, dated 2019)
Residues, ends and D or L forms follow the SMILES beside them.

Key:
[1] = system: human neuroblast line SH-SY5Y; assay: ApoTox-Glo Triplex assay (cell viability, cytotoxicity, caspase-3 activity); format: cell-based; details: neuronal cells
Method: Human neuroblast line SH-SY5Y cells were cultured in 100 μl of dulbecco modified eagle medium (DMEM) supplemented with 10% (v/v) fetal bovine serum (FBS) and 1% (w/v) antibiotic (penicillin-streptomycin) at 37° C. and under the condition of 5% CO2.
Cells were seeded in a 96-well plate containing growth medium (DMEM medium containing 10% FBS, 100 units/ml penicillin, and […] streptomycin) in such a way that 100 μl of the culture was seeded in every cell at the population of 2×10^4 cells, and cultured under the condition of 5% CO2 at 37° C. When cells were about 70-90% confluent, they were transformed with pCAX-APP Swe/Ind for 8 hours by using Lipofectamine 3000 according to the manufacturers instructions. Then, the medium was removed by suction and replaced with fresh 100 μl of growth medium containing 0.5 to 20 μM osmotin-peptide. The cells in the fresh medium were incubated for 24 hours.
After 24 hours, ApoTox-Glo™ Triplex assay using Glomax-Multi Detection system was performed according to the manufacturer's instructions to confirm cell viability, cytotoxicity assay, and caspase-3 activity.

[2] = Brain transfer of osmotin peptide-FITC after IP and tail vein (IV) injection, confocal fluorescence; format: in vivo, mice; details: for migration to the hippocampus of the brain: four hours later, FIG. 3
Method: In addition, osmotin peptide-FITC was administered to the mice by intraperitoneal (IP) injection and tail vein injection (IV). Four hours later, the mice were fixed by transcardial perfusion with 4% (v/v) ice-cold paraformaldehyde, and the brain was harvested and post-fixed in 4% (v/v) paraformaldehyde for 72 hours, and finally, transferred to a 20% (w/v) sucrose for 72 hours.
The brain was infiltrated with OCT (optimal cutting temperature compound) under liquid nitrogen, and a 14 μm coronal section was mounted on a ProbeOn Plus slide.
Slides for immunofluorescence analysis were washed twice with 0.01 M PBS buffer for 15 minutes. The sections were covered with proteinase K and incubated for 5 minutes in a humid chamber at the temperature of 37° C. Incubation was performed for one hour in a blocking solution containing 5% (v/v) normal goat serum dissolved in PBS buffer and 0.3% (v/v) Triton X-100. After the blocking process, the mounting cover slips and sections were observed on a confocal laser-scanning microscope (Flouview FV 1000).

Structure (SMILES): C[C@@H](O)[C@H](NC(=O)[C@@H]1CCCN1C(=O)CNC(=O)[C@H](CS)NC(=O)[C@@H]1CCCN1C(=O)CNC(=O)[C@H](CCC(N)=O)NC(=O)[C@@H](NC(=O)[C@@H](N)CS)[C@@H](C)O)C(=O)O [osmotin peptide] (H-CTQGPCGPT-OH)
- cytotoxicity [1]: little cytotoxicity
- migration to the hippocampus of the brain ([2]; intraperitoneal (IP) injection): migrated to the hippocampus of the brain
- migration to cortex and hypothalamus of the brain ([2]; intravenous injection, FIG. 4): migrated to cortex and hypothalamus of the brain
- migration to the hippocampus of the brain ([2]; tail vein injection (IV)): migrated to the hippocampus of the brain
